Measurements reported in patent US20090048214A1, “Methods for Treating Renal Tumors Using 2, 4-Pyrimidinediamine Drug and Prodrug Compounds” (RIGEL PHARMACEUTICALS, INC, priority 2006, published 2009).

Experiments:
[1] = test system: OVCAR-4; assay: cells; conditions: Homo sapiens
[2] = test system: RPM1-8226; assay: cells; conditions: Homo sapiens
[3] = test system: OVCAR-8; assay: cells; conditions: Homo sapiens
[4] = test system: HCT-116; conditions: HCT-116, Colon Cancer; besylate salt
[5] = test system: HCC-2998; conditions: HCC-2998, Colon Cancer; besylate salt
[6] = test system: NCI/ADR-RES; conditions: Breast Cancer, besylate salt
[7] = test system: SF-268; assay: cells; conditions: Homo sapiens
[8] = test system: SNB-75; conditions: SNB-75, CNS Cancer; besylate salt
[9] = test system: T-47D; conditions: Breast Cancer, besylate salt
[10] = test system: OVCAR-5; conditions: OVCAR-5, Ovarian Cancer; besylate salt
[11] = test system: COLO 205; assay: cells; conditions: Homo sapiens
[12] = test system: MALME-3M; conditions: Melanoma, besylate salt
[13] = test system: SK-MEL-5; conditions: SK-MEL-5, Melanoma; besylate salt
[14] = test system: HS 578T; assay: cells; conditions: Homo sapiens
[15] = test system: BT-549; conditions: BT-549, Breast Cancer; besylate salt
[16] = test system: CCRF-CEM; conditions: Leukemia, besylate salt
[17] = test system: SW-620; conditions: SW-620, Colon Cancer; besylate salt
[18] = test system: KM12; conditions: KM12, Colon Cancer; besylate salt
[19] = test system: PC-3; assay: cells; conditions: Homo sapiens
[20] = test system: SW-620; assay: cells; conditions: Homo sapiens, SW-620, read-out: LC50
[21] = test system: A549/ATCC; assay: cells; conditions: Homo sapiens, A549, read-out: LC50
[22] = test system: DU-145; assay: cells; conditions: Homo sapiens, DU-145, read-out: LC50
[23] = test system: U251; assay: cells; conditions: Homo sapiens, U-251, read-out: LC50
[24] = test system: UACC-257; conditions: UACC-257, Melanoma; besylate salt
[25] = test system: MCF7; assay: cells; conditions: Homo sapiens
[26] = test system: HCC-2998; assay: cells; conditions: Homo sapiens
[27] = test system: PC-3; conditions: PC-3, Prostate Cancer; besylate salt
[28] = test system: M14; conditions: M14, Melanoma; besylate salt
[29] = test system: EKVX; conditions: Non-Small Cell Lung Cancer, besylate salt
[30] = test system: SK-OV-3; assay: cells; conditions: Homo sapiens
[31] = test system: NCI-H460; conditions: NCI-H460, Non-Small Cell Lung Cancer; besylate salt
[32] = test system: NCI-H322M; assay: cells; conditions: Homo sapiens
[33] = test system: BT-549; assay: cells; conditions: Homo sapiens
[34] = test system: EKVX; assay: cells; conditions: Homo sapiens
[35] = test system: CAKI-1; assay: cells; conditions: Homo sapiens
[36] = test system: T-47D; assay: cells; conditions: Homo sapiens, T47D, read-out: LC50
[37] = test system: NCI-H460; assay: cells; conditions: Homo sapiens, NCI-H460, read-out: LC50
[38] = test system: HCT-116; assay: cells; conditions: Homo sapiens, HCT-116, read-out: LC50
[39] = test system: NCI-H226; assay: cells; conditions: Homo sapiens

## COc1cc(Nc2ncc(F)c(Nc3ccc4c(n3)NC(=O)C(C)(C)O4)n2)cc(OC)c1OC [Compound 1]
[1]; OVCAR-4, read-out: G150
  IC50: > 100 µM
[1]; OVCAR-4, read-out: LC50
  CC50: > 100 µM
[2]; read-out: G150
  IC50: > 100 µM
[2]; read-out: LC50
  CC50: > 100 µM
[3]; OVCAR-8, read-out: G150
  IC50: > 100 µM
[3]; OVCAR-8, read-out: LC50
  CC50: > 100 µM
[4]
  TGI: >1.00E−4
[5]
  TGI: >1.00E−4
[6]
  TGI: >1.00E−4
[7]; SF-268, read-out: G150
  IC50: 1.7 µM
[7]; SF-268, read-out: LC50
  CC50: > 100 µM
[8]
  TGI: >1.00E−4
[9]
  TGI: >1.00E−4
[10]
  TGI: >1.00E−4
[11]; COLO 205, read-out: G150
  IC50: 7.26 µM
[11]; COLO 205, read-out: LC50
  CC50: > 100 µM
[12]
  TGI: >1.00E−4
[13]
  TGI: >1.00E−4
[14]; read-out: G150
  IC50: 1.19 µM
[14]; read-out: LC50
  CC50: > 100 µM
[15]
  TGI: >1.00E−4
[16]
  TGI: >1.00E−4
[17]
  TGI: >1.00E−4
[18]
  TGI: >1.00E−4
[19]; PC-3, read-out: G150
  IC50: 3.07 µM
[19]; PC-3, read-out: LC50
  CC50: > 100 µM
[20]
  CC50: > 100 µM
[21]
  CC50: > 100 µM
[22]
  CC50: > 100 µM
[23]
  CC50: > 100 µM
[24]
  TGI: >1.00E−4
[25]; MCF7, read-out: G150
  IC50: 2.72 µM
[25]; MCF7, read-out: LC50
  CC50: > 100 µM
[26]; HCC 2998, read-out: G150
  IC50: > 100 µM
[26]; HCC 2998, read-out: LC50
  CC50: > 100 µM
[27]
  TGI: >1.00E−4
[28]
  TGI: >1.00E−4
[29]
  TGI: >1.00E−4
[30]; SK-OV-3, read-out: G150
  IC50: 0.429 µM
[30]; SK-OV-3, read-out: LC50
  CC50: > 100 µM
[31]
  TGI: >1.00E−4
[32]; read-out: G150
  IC50: > 100 µM
[32]; read-out: LC50
  CC50: > 100 µM
[33]; BT-549, read-out: G150
  IC50: 2.43 µM
[33]; BT-549, read-out: LC50
  CC50: > 100 µM
[34]; read-out: G150
  IC50: 1.66 µM
[34]; read-out: LC50
  CC50: > 100 µM
[35]; CAKI-1, read-out: G150
  IC50: 0.0515 µM
[35]; CAKI-1, read-out: LC50
  CC50: > 100 µM
[36]
  CC50: > 100 µM
[37]
  CC50: > 100 µM
[38]
  CC50: > 100 µM
[39]; NCI-H226, read-out: G150
  IC50: 0.497 µM
[39]; NCI-H226, read-out: LC50
  CC50: > 100 µM
